# US5792767A, “Bicyclic substituted hexahydrobenz [e] isoindole alpha-1 adrenergic antagonists” (priority 1995, dated 1998)
# Structures can show the parent of a compound that is named as a salt.
# Assays:
# [1] = biological target: T1, α-1A adrenoceptor (rat vas deferens) (Rattus norvegicus, UniProt P43140); experiment: Functional antagonism of phenylephrine-induced contraction of rat vas deferens; type: cell-based; conditions: vs phenylephrine-induced contraction, Schild plot
# T1 construct: PE-induced contraction of rat vas deferens; from tissue; host or cells: isolated rat vas deferens
# T1 sequence (P43140 1-466): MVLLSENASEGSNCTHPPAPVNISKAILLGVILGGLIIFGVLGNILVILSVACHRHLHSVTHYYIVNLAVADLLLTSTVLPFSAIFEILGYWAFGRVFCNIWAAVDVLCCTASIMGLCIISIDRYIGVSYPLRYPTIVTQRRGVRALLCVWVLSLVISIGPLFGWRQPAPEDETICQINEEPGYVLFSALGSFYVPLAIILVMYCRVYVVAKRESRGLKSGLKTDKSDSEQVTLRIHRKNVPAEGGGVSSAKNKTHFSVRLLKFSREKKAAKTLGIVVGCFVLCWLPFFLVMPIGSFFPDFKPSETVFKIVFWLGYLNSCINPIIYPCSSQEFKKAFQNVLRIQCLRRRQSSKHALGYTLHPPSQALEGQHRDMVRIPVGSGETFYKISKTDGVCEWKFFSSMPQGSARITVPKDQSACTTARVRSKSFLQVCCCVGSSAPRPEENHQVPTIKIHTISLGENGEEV
# From the text: (§1) Functional assays indicative of pharmacologically defined α-1 adrenoceptors were used to further characterize compounds. Inhibition of phenylephrine (PE)-induced contraction of canine prostate smooth muscle can be correlated with α-1A adrenoceptor activation. […] For each of these models, agonist dose response curves were repeated against increasing concentrations of test agent to derive a Schild plot [log ([…]) against log (molarity of test agent)] to determine the pA2.
# [2] = biological target: T2, α-1B adrenoceptor (rat spleen) (Rattus norvegicus, UniProt P15823); experiment: Functional antagonism of phenylephrine-induced contraction of rat spleen; type: cell-based; conditions: vs phenylephrine-induced contraction, Schild plot
# T2 construct: PE-induced contraction of rat spleen; from tissue; host or cells: isolated rat spleen
# T2 sequence (P15823 1-515): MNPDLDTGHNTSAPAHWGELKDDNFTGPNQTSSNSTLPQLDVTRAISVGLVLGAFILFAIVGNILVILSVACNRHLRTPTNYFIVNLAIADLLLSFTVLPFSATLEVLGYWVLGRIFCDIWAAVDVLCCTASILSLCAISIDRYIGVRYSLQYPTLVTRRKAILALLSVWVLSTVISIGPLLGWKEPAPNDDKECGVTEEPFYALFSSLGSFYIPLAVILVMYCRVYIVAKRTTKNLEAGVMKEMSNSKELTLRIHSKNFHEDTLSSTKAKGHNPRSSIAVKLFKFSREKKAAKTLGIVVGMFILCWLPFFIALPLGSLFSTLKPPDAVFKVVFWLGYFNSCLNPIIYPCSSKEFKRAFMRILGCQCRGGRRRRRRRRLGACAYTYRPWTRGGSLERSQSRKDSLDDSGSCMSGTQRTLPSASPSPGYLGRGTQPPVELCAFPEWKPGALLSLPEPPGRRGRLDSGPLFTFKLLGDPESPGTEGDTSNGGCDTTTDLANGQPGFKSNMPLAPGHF
# From the text: as §1
# [3] = biological target: T3, α-1A adrenoceptor (dog prostate) (Homo sapiens, UniProt P35348); experiment: Functional antagonism of phenylephrine-induced contraction of canine prostate strips; type: cell-based, dog (canine); conditions: vs phenylephrine-induced contraction, Schild plot
# T3 construct: from tissue; host or cells: canine prostate strips
# T3 sequence (P35348 1-466): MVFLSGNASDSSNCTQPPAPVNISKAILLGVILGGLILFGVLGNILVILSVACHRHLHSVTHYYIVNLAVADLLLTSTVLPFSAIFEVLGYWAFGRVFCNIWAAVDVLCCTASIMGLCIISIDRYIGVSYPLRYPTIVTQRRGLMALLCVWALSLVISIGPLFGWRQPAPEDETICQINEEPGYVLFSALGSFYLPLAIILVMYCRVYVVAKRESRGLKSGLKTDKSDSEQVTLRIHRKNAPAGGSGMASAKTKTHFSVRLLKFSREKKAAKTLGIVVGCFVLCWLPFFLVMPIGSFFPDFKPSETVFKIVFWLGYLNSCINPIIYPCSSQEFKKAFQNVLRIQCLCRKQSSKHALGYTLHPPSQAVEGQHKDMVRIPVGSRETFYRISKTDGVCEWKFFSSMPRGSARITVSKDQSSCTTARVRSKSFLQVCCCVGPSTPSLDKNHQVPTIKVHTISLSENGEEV
# From the text: Canine prostate strips were used in vitro as previously described (Hieble, J. P., Boyce, A. J. and Caine, M., Fed. Proc., 45: 2609-2614 (1986)), to determine antagonist potencies against phenylephrine-induced contractions.
# as §1
# BPH patients = conditions: cited from earlier work; for improvement in urinary flow rates and subjective symptom scores: longer term studies
Compound,pA2 Rat Spleen [α-1B] [2],pA2 Dog Prostate [α-1A] [3],improvement in urinary flow rates and subjective symptom scores (BPH patients),other results
"COc1cccc2c1CC[C@@H]1CN(CCn3c(=O)[nH]c4ccccc4c3=O)C[C@H]21 (relative stereo) [Example 1, 3-[2-(cis-9-Methoxy-2,3,3a,4,5,9b-hexahydro-[1H]-benz[e]isoindol-1-yl)ethyl]-[1H,3H]-quinazoline-2,4(1H,3H)-dione hydrochloride]",8,9.29,,pA2 Rat Vas Deferens [α-1A] [1]: 8.49
"COc1cccc2c1CC[C@H]1CN(CCn3c(=O)[nH]c4c(-c5ccccc5)csc4c3=O)C[C@@H]21 (relative stereo) [Example 31, 3-[2-(cis-6-Methoxy-2,3,3a,4,5,9b-hexahydro-[1H]-benz[e]isoindol-1-yl)ethyl]-7-phenylthieno[3.2-d]pyrimidine-2,4(1H,3H)-dione methanesulfonate]",,8.63,,
"COc1cccc2c1CC[C@H]1CN(CCn3c(=O)[nH]c4cc(C)c(C)cc4c3=O)C[C@@H]21 [Example 68, hydrochloride]",,8.28,,
"CCCOC(=O)c1ccc2c(=O)n(CCN3C[C@@H]4CCc5c(OC)cccc5[C@@H]4C3)c(=O)[nH]c2c1 [Example 72, hydrochloride]",,8.57,,
"CCOc1ccc2c(=O)n(CCN3C[C@@H]4CCc5c(OC)cccc5[C@@H]4C3)c(=O)[nH]c2c1C [Example 78, 3-[2-((3aR,9bR)cis-6-Methoxy-2,3,3a,4,5,9b-hexahydro-[1H]-benz[e]isoindol-1I-yl)ethyl]-7-ethox-8-methyl-quinazoline-2,4(1H,3H|-dione hydrochloride]",,8.03,,
"COc1cccc2c1CC[C@H]1CN(CCn3c(=O)[nH]c4c(OC)c(OC)ccc4c3=O)C[C@@H]21 [Example 81, hydrochloride]",8.15,9.45,,pA2 Rat Vas Deferens [α-1A] [1]: 8.9
COc1cc2nc(N3CCN(C(=O)C4COc5ccccc5O4)CC3)nc(N)c2cc1OC (stereo not shown) [doxazosin],,,significant improvements in urinary flow rates and subjective symptom scores,
O=C(NC1CCN(CCc2c[nH]c3ccccc23)CC1)c1ccccc1 [indoramin],,,significant improvements in urinary flow rates and subjective symptom scores,
COc1cc2nc(N3CCN(C(=O)c4ccco4)CC3)nc(N)c2cc1OC [prazosin],,,significant improvements in urinary flow rates and subjective symptom scores,
COc1cc2nc(N3CCN(C(=O)C4CCCO4)CC3)nc(N)c2cc1OC (stereo not shown) [terazosin],8.6,,significant improvements in urinary flow rates and subjective symptom scores,clinical efficacy in BPH (BPH patients; non-selective α-1 blockers): Clinical efficacy of α-1 antagonists in BPH has been demonstrated
